# Like-named read-outs stand apart in the source and are kept apart here.
# Key:
# Assay in all cases: biochemical
# Parameters in all cases: DiscoveRx KINOMEscan active site-directed competition binding; percent of control kinase bound to immobilised ligand
# CDC2L5 = target: T1, CDC2L5 (Homo sapiens, UniProt Q14004)
# T1 construct: gene CDK13
# CLK1 = CLK1 (Homo sapiens, UniProt P49759)
# CSNK2A1 = CSNK2A1 (Homo sapiens, UniProt P68400)
# FLT3(D835Y) = target: T2, FLT3(D835Y) (Homo sapiens, UniProt P36888, D835Y)
# T2 sequence (P36888 1-993 D835Y): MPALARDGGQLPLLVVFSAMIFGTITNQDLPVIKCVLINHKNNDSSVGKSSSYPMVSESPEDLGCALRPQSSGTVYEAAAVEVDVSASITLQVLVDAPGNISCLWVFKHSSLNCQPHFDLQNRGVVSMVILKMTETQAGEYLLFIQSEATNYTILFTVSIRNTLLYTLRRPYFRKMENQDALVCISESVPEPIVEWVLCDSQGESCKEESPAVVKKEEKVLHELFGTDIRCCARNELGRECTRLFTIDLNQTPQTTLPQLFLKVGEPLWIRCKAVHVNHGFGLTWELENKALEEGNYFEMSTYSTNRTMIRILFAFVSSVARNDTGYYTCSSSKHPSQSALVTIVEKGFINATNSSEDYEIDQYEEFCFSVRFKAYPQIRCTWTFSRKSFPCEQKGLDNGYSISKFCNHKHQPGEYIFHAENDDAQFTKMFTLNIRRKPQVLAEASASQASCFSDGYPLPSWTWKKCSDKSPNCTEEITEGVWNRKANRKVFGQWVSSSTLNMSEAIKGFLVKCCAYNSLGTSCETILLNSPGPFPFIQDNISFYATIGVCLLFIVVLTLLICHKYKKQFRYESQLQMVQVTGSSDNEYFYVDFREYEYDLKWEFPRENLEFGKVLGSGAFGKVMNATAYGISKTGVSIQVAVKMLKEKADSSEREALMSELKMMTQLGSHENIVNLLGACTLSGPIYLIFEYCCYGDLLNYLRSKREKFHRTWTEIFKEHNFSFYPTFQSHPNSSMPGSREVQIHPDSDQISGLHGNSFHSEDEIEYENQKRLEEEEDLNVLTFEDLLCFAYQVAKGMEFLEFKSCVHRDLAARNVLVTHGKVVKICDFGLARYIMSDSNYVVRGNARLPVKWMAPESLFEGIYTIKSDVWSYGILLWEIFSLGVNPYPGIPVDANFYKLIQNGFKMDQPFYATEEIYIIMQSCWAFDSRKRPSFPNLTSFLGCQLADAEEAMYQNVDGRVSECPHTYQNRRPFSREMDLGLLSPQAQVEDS
# JNK3 = target: T3, JNK3 (Homo sapiens, UniProt P53779)
# T3 construct: gene MAPK10
# T3 sequence (P53779 whole entry): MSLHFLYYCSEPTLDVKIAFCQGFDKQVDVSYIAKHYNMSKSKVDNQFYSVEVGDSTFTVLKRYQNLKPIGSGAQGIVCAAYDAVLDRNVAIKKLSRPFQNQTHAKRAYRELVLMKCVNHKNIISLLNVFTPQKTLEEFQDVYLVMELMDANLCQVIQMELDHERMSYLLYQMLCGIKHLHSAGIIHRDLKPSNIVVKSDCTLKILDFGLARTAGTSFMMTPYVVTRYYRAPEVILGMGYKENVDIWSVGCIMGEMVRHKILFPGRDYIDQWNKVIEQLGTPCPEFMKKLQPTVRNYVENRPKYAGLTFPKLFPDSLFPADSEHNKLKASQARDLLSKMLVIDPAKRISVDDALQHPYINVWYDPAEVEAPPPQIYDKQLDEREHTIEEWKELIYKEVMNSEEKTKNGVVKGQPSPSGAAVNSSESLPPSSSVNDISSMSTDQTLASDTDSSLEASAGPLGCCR
# MAPKAPK2 = MAPKAPK2 (Homo sapiens, UniProt P49137)
# Sequence of MAPKAPK2 (P49137 whole entry): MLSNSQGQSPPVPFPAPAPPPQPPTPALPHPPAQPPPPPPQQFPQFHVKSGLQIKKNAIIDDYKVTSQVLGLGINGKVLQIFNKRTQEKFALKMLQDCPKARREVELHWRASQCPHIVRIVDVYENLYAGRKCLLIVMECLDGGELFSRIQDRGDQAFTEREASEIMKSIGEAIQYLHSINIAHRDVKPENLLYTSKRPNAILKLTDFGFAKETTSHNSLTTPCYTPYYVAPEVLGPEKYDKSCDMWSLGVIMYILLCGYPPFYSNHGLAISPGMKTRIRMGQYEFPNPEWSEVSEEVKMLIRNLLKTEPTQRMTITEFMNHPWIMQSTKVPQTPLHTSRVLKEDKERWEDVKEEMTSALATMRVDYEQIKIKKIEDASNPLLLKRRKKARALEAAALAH
# MERTK = target: T4, MERTK (Homo sapiens, UniProt Q12866)
# T4 sequence (Q12866 1-999): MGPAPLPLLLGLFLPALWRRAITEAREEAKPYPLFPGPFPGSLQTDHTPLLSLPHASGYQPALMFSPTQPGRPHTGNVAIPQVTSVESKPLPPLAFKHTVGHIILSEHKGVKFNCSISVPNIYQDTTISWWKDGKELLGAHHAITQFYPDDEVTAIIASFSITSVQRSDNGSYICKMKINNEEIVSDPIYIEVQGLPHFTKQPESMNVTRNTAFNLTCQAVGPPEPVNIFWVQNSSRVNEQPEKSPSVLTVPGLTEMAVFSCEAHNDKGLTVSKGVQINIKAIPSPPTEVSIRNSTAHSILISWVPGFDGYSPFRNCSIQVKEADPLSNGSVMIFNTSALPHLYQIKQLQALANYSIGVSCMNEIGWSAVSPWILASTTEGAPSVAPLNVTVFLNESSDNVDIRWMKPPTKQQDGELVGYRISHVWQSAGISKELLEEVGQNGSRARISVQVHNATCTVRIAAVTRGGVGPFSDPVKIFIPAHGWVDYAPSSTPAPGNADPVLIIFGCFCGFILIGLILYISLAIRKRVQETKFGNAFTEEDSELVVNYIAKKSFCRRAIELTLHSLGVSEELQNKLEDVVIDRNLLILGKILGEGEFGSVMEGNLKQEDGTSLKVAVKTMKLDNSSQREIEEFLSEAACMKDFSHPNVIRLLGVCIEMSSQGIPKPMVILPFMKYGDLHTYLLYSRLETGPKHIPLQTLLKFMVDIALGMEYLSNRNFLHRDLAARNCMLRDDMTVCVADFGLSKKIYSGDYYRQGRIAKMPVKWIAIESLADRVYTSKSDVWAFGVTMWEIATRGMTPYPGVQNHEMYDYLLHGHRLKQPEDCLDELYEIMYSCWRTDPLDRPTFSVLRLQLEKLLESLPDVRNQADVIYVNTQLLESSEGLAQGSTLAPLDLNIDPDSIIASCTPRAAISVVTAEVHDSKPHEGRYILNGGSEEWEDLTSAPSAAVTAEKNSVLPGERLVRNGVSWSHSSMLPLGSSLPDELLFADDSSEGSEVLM
# MYO3A = MYO3A (Homo sapiens, UniProt Q8NEV4)
# [1] = target: T5, RPS6KA4(Kin.Dom.1-N-terminal) (Homo sapiens, UniProt O75676)
# T5 construct: Kin.Dom.1-N-terminal
# T5 sequence (O75676 whole entry): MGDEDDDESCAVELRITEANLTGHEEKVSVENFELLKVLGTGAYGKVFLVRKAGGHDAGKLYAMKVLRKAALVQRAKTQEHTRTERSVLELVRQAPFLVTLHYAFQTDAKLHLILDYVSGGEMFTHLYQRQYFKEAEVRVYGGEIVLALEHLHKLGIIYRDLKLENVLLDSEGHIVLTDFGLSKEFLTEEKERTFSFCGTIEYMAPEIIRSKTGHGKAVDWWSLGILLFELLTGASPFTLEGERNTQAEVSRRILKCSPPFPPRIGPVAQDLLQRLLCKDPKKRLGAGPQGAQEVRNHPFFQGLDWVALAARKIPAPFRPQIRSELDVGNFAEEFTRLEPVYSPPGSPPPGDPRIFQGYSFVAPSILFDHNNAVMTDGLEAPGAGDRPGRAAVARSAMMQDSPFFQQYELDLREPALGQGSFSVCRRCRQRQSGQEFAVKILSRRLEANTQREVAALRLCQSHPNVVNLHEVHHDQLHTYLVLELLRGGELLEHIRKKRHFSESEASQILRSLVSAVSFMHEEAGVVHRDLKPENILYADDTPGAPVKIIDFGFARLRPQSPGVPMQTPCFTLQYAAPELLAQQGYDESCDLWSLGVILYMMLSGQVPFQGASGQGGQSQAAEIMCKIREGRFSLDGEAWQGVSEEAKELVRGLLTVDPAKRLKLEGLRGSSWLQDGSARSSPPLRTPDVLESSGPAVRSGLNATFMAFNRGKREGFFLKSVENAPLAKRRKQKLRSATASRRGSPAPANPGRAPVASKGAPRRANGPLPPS
# TGFBR2 = TGFBR2 (Homo sapiens, UniProt P37173)
# Sequence of TGFBR2 (P37173 whole entry): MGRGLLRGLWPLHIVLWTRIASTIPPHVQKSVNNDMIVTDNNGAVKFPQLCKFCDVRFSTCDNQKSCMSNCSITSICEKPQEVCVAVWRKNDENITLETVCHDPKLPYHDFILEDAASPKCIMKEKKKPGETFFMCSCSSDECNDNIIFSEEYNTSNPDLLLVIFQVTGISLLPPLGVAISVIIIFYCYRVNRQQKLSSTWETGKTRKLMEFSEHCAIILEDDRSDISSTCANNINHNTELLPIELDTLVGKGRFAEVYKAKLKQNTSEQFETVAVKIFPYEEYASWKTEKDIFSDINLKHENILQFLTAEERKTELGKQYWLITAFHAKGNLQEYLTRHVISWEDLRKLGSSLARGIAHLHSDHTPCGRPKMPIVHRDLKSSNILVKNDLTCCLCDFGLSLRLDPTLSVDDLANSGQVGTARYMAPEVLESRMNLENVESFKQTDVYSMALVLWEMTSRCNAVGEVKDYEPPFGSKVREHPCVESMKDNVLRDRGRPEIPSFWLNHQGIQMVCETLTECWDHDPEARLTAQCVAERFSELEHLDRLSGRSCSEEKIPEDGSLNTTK
# [2] = read-out: Talazoparib (BMN 673) / %Ctrl @ 10000nM
# [3] = read-out: Olaparib / %Ctrl @ 10000nM
# [4] = read-out: Rucaparib / %Ctrl @ 10000nM, binding competition, % of control
# [5] = read-out: Niraparib (MK-4827) / %Ctrl @ 10000nM
# T1 sequence (Q14004 whole entry): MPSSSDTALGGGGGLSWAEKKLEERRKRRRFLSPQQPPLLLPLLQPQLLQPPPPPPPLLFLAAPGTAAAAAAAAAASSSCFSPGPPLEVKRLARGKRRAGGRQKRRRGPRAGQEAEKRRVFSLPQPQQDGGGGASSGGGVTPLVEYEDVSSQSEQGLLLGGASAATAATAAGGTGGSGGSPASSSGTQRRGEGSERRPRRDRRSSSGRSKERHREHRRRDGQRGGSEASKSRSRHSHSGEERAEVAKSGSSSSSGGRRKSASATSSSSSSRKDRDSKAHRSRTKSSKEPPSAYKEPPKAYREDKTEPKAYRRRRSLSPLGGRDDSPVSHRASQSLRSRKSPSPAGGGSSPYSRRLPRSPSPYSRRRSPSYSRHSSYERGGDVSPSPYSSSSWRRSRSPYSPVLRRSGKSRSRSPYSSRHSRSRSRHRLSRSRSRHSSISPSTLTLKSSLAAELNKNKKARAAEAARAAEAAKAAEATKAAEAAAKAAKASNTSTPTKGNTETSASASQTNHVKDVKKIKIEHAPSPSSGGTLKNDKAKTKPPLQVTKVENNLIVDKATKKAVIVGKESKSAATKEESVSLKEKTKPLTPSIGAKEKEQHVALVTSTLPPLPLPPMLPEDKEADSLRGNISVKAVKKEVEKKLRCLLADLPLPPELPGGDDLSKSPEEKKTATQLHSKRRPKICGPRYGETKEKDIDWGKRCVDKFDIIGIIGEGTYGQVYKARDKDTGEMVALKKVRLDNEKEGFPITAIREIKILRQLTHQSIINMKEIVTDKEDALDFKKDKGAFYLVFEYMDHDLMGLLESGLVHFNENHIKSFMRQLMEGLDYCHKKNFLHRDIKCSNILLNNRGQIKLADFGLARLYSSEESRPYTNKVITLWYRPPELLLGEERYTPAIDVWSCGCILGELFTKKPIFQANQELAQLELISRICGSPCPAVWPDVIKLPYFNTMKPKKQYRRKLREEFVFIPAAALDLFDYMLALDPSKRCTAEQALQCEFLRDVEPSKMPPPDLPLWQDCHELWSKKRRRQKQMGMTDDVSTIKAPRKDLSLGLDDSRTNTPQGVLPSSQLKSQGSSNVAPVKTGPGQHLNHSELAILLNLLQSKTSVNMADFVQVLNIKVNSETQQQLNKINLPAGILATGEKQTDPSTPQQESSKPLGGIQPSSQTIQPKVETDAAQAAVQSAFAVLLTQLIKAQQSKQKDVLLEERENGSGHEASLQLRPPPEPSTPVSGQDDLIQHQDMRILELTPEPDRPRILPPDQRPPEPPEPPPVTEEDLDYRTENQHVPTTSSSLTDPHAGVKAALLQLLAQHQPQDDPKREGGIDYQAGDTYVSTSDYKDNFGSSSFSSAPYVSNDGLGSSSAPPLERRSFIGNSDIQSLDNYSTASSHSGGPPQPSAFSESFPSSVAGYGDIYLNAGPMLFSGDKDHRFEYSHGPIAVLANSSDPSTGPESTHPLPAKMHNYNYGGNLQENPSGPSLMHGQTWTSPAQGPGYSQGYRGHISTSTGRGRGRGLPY
# Sequence of CSNK2A1 (P68400 whole entry): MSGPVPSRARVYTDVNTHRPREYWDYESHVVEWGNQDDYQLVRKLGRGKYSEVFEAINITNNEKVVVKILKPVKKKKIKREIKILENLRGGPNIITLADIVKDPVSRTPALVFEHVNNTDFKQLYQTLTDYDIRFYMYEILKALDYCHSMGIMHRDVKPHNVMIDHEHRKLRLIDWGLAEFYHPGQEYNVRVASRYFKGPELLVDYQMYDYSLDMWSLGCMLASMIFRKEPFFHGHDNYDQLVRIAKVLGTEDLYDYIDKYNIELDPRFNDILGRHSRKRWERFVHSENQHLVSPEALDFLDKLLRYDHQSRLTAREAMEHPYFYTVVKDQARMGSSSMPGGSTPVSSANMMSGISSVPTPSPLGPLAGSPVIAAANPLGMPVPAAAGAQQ
# Sequence of CLK1 (P49759 whole entry): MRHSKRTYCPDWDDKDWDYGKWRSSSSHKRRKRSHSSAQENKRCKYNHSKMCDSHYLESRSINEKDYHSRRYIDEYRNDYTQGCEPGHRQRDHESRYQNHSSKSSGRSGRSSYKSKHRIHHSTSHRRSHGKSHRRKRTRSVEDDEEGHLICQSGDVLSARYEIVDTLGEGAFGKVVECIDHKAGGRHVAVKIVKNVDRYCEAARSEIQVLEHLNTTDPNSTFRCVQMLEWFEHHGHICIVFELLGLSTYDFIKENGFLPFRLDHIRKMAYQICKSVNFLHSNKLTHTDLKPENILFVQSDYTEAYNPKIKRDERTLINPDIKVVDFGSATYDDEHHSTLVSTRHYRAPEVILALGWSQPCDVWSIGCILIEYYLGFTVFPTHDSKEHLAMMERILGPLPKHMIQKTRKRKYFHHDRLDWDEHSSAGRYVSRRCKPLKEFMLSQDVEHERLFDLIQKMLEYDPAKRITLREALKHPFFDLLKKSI
smiles,measurement,setting,value
Cn1ncnc1[C@H]1c2n[nH]c(=O)c3cc(F)cc(c23)N[C@@H]1c1ccc(F)cc1 [Talazoparib],percent of control binding at 10 µM,CDC2L5; [2],100%
same,percent of control binding at 10 µM,CLK1; [2],86%
same,percent of control binding at 10 µM,CSNK2A1; [2],98%
same,percent of control binding at 10 µM,FLT3(D835Y); [2],96%
same,percent of control binding at 10 µM,JNK3; [2],91%
same,percent of control binding at 10 µM,MAPKAPK2; [2],100%
same,percent of control binding at 10 µM,MERTK; [2],98%
same,percent of control binding at 10 µM,MYO3A; [2],83%
same,percent of control binding at 10 µM,[1]; [2],61%
same,percent of control binding at 10 µM,TGFBR2; [2],98%
O=C(c1cc(Cc2n[nH]c(=O)c3ccccc23)ccc1F)N1CCN(C(=O)C2CC2)CC1 [Olaparib],percent of control binding at 10 µM,CDC2L5; [3],99%
same,percent of control binding at 10 µM,CLK1; [3],99%
same,percent of control binding at 10 µM,CSNK2A1; [3],88%
same,percent of control binding at 10 µM,FLT3(D835Y); [3],87%
same,percent of control binding at 10 µM,JNK3; [3],86%
same,percent of control binding at 10 µM,MAPKAPK2; [3],84%
same,percent of control binding at 10 µM,MERTK; [3],83%
same,percent of control binding at 10 µM,MYO3A; [3],100%
same,percent of control binding at 10 µM,[1]; [3],100%
same,percent of control binding at 10 µM,TGFBR2; [3],89%
CNCc1ccc(-c2[nH]c3cc(F)cc4c3c2CCNC4=O)cc1 [Rucaparib],percent of control binding at 10 µM,CDC2L5; [4],98%
same,percent of control binding at 10 µM,CLK1; [4],37%
same,percent of control binding at 10 µM,CSNK2A1; [4],2.2%
same,Rucaparib / %Ctrl @ 10000nM,"FLT3(D835Y); binding competition, % of control",24%
same,percent of control binding at 10 µM,JNK3; [4],71%
same,percent of control binding at 10 µM,MAPKAPK2; [4],100%
same,percent of control binding at 10 µM,MERTK; [4],64%
same,percent of control binding at 10 µM,MYO3A; [4],42%
same,percent of control binding at 10 µM,[1]; [4],100%
same,percent of control binding at 10 µM,TGFBR2; [4],96%
NC(=O)c1cccc2cn(-c3ccc([C@@H]4CCCNC4)cc3)nc12 [Niraparib],percent of control binding at 10 µM,CDC2L5; [5],100%
same,percent of control binding at 10 µM,CLK1; [5],48%
same,percent of control binding at 10 µM,CSNK2A1; [5],6.8%
same,percent of control binding at 10 µM,FLT3(D835Y); [5],54%
same,percent of control binding at 10 µM,JNK3; [5],88%
same,percent of control binding at 10 µM,MAPKAPK2; [5],80%
same,percent of control binding at 10 µM,MERTK; [5],99%
same,percent of control binding at 10 µM,MYO3A; [5],72%
same,percent of control binding at 10 µM,[1]; [5],100%
same,percent of control binding at 10 µM,TGFBR2; [5],92%
